US9187472B2 (AbbVie Inc., priority 2012, dated 2015)

These compounds were tested on PC3 cells (assay: NAMPT Cell Proliferation Assay). Conditions: Homo sapiens, PC-3, 120 h, 5 days incubation, cell viability by Cell Titer Glo.
Assay type: cell-based
Procedure, shortened: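 Following overnight attachment in RPMI with 10% heat-inactivated FBS, PC3 cells at 500 per well receive compounds spanning 10 μM down to 1×10^−5 μM. Growth is assessed by luminescent viability read after 5 days.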
`O=C(NCc1ccn2ccnc2c1)Nc1ccc(C2CCN(C(=O)C3Cc4ccccc4O3)CC2)cc1` (stereo not drawn) [Example 1024, 1-{4-[1-(2,3-dihydro-1-benzofuran-2-ylcarbonyl)piperidin-4-yl]phenyl}-3-(imidazo[1,2-a]pyridin-7-ylmethyl)urea] was tested, and the IC50 was 3.52 nM.
For `COC1CCC(C(=O)N2CCC(c3ccc(NC(=O)NCc4ccn5ccnc5c4)cc3)CC2)CC1` (stereo not drawn) [Example 1025, 1-(imidazo[1,2-a]pyridin-7-ylmethyl)-3-(4-{1-[(4-methoxycyclohexyl)carbonyl]piperidin-4-yl}phenyl)urea], the IC50 was 0.808 nM.
With `O=C(NCc1ccn2ccnc2c1)Nc1ccc(C2CCN(C(=O)c3cccc4c3OCCO4)CC2)cc1` [Example 1026, 1-{4-[1-(2,3-dihydro-1,4-benzodioxin-5-ylcarbonyl)piperidin-4-yl]phenyl}-3-(imidazo[1,2-a]pyridin-7-ylmethyl)urea] the IC50 was 1.56 nM.
Work on `O=C(NCc1ccn2ccnc2c1)Nc1ccc(C2CCN(C(=O)c3cncc4ccccc34)CC2)cc1` [Example 1027, 1-(imidazo[1,2-a]pyridin-7-ylmethyl)-3-{4-[1-(isoquinolin-4-ylcarbonyl)piperidin-4-yl]phenyl}urea] yielded an IC50 of 2.28 nM.
In the case of `Cc1nc2ccc(C(=O)N3CCC(c4ccc(NC(=O)NCc5ccn6ccnc6c5)cc4)CC3)cc2o1` [Example 1028, 1-(imidazo[1,2-a]pyridin-7-ylmethyl)-3-(4-{1-[(2-methyl-1,3-benzoxazol-6-yl)carbonyl]piperidin-4-yl}phenyl)urea], the IC50 is reported as 7.36 nM.
`Cc1cc(C(=O)N2CCC(c3ccc(NC(=O)NCc4ccn5ccnc5c4)cc3)CC2)n(C(C)(C)C)n1` [Example 1029, 1-(4-{1-[(1-tert-butyl-3-methyl-1H-pyrazol-5-yl)carbonyl]piperidin-4-yl}phenyl)-3-(imidazo[1,2-a]pyridin-7-ylmethyl)urea] was tested, and the IC50 was 0.272 nM.
Work on `N#CC1(C(=O)N2CCC(c3ccc(NC(=O)NCc4ccn5ccnc5c4)cc3)CC2)CCCC1` [Example 1030, 1-(4-{1-[(1-cyanocyclopentyl)carbonyl]piperidin-4-yl}phenyl)-3-(imidazo[1,2-a]pyridin-7-ylmethyl)urea] yielded an IC50 of 2.04 nM.
`O=C(NCc1ccn2ccnc2c1)Nc1ccc(C2CCN(C(=O)c3cnnc4ccccc34)CC2)cc1` [Example 1031, 1-{4-[1-(cinnolin-4-ylcarbonyl)piperidin-4-yl]phenyl}-3-(imidazo[1,2-a]pyridin-7-ylmethyl)urea] showed an IC50 of 7.73 nM.
For `O=C(NCc1ccn2ccnc2c1)Nc1ccc(C2CCN(C(=O)c3ccc4cccnc4c3)CC2)cc1` [Example 1032, 1-(imidazo[1,2-a]pyridin-7-ylmethyl)-3-{4-[1-(quinolin-7-ylcarbonyl)piperidin-4-yl]phenyl}urea], the IC50 was 8.88 nM.
In the case of `N#Cc1ccc(F)c(C(=O)N2CCC(c3ccc(NC(=O)NCc4ccn5ccnc5c4)cc3)CC2)c1` [Example 1033, 1-{4-[1-(5-cyano-2-fluorobenzoyl)piperidin-4-yl]phenyl}-3-(imidazo[1,2-a]pyridin-7-ylmethyl)urea], the IC50 is reported as 1.97 nM.
For `O=C(NCc1ccn2ccnc2c1)Nc1ccc(C2CCN(C(=O)c3cc(C4CC4)no3)CC2)cc1` [Example 1034, 1-(4-{1-[(3-cyclopropyl-1,2-oxazol-5-yl)carbonyl]piperidin-4-yl}phenyl)-3-(imidazo[1,2-a]pyridin-7-ylmethyl)urea], the IC50 was 6.29 nM.
`O=C(NCc1ccn2ccnc2c1)Nc1ccc(C2CCN(C(=O)c3cnc4c(c3)CCCC4)CC2)cc1` [Example 1035, 1-(imidazo[1,2-a]pyridin-7-ylmethyl)-3-{4-[1-(5,6,7,8-tetrahydroquinolin-3-ylcarbonyl)piperidin-4-yl]phenyl}urea] gave an IC50 of 3.04 nM.
`O=C(NCc1ccn2ccnc2c1)Nc1ccc(C2CCN(C(=O)c3cnc4c(c3)CCCO4)CC2)cc1` [Example 1036, 1-{4-[1-(3,4-dihydro-2H-pyrano[2,3-b]pyridin-6-ylcarbonyl)piperidin-4-yl]phenyl}-3-(imidazo[1,2-a]pyridin-7-ylmethyl)urea] gave an IC50 of 16 nM.
With `O=C(NCc1ccn2ccnc2c1)Nc1ccc(C2CCN(C(=O)c3ccc4ccncc4c3)CC2)cc1` [Example 1037, 1-(imidazo[1,2-a]pyridin-7-ylmethyl)-3-{4-[1-(isoquinolin-7-ylcarbonyl)piperidin-4-yl]phenyl}urea] the IC50 was 7.76 nM.
With `O=C(NCc1ccn2ccnc2c1)Nc1ccc(C2CCN(C(=O)c3cnc4ccccc4n3)CC2)cc1` [Example 1038, 1-(imidazo[1,2-a]pyridin-7-ylmethyl)-3-{4-[1-(quinoxalin-2-ylcarbonyl)piperidin-4-yl]phenyl}urea] the IC50 was 7.84 nM.
With `COc1ncccc1/C=C/C(=O)N1CCC(c2ccc(NC(=O)NCc3ccn4ccnc4c3)cc2)CC1` [Example 1039, 1-(imidazo[1,2-a]pyridin-7-ylmethyl)-3-(4-{1-[(2E)-3-(2-methoxypyridin-3-yl)prop-2-enoyl]piperidin-4-yl}phenyl)urea] the IC50 was 6.87 nM.
With `O=C(NCc1ccn2ccnc2c1)Nc1ccc(C2CCN(C(=O)/C=C/c3ccccn3)CC2)cc1` [Example 1040, 1-(imidazo[1,2-a]pyridin-7-ylmethyl)-3-(4-{1-[(2E)-3-(pyridin-2-yl)prop-2-enoyl]piperidin-4-yl}phenyl)urea] the IC50 was 13.4 nM.
`Cc1cc(Cl)c(C(=O)N2CCC(c3ccc(NC(=O)NCc4ccn5ccnc5c4)cc3)CC2)c(C)n1` [Example 1041, 1-(4-{1-[(4-chloro-2,6-dimethylpyridin-3-yl)carbonyl]piperidin-4-yl}phenyl)-3-(imidazo[1,2-a]pyridin-7-ylmethyl)urea] showed an IC50 of 2.41 nM.
`Cc1cccn2cc(C(=O)N3CCC(c4ccc(NC(=O)NCc5ccn6ccnc6c5)cc4)CC3)nc12` [Example 1042, 1-(imidazo[1,2-a]pyridin-7-ylmethyl)-3-(4-{1-[(8-methylimidazo[1,2-a]pyridin-2-yl)carbonyl]piperidin-4-yl}phenyl)urea] was tested, and the IC50 was 3.59 nM.
With `CCOc1cc(C(=O)N2CCC(c3ccc(NC(=O)NCc4ccn5ccnc5c4)cc3)CC2)ccn1` [Example 1043, 1-(4-{1-[(2-ethoxypyridin-4-yl)carbonyl]piperidin-4-yl}phenyl)-3-(imidazo[1,2-a]pyridin-7-ylmethyl)urea] the IC50 was 10.4 nM.
Work on `Cn1c(C(=O)N2CCC(c3ccc(NC(=O)NCc4ccn5ccnc5c4)cc3)CC2)cc2occc21` [Example 1045, 1-(imidazo[1,2-a]pyridin-7-ylmethyl)-3-(4-{1-[(4-methyl-4H-furo[3,2-b]pyrrol-5-yl)carbonyl]piperidin-4-yl}phenyl)urea] yielded an IC50 of 6.69 nM.
Compound `CC1Cc2cc(C(=O)N3CCC(c4ccc(NC(=O)NCc5ccn6ccnc6c5)cc4)CC3)ccc2O1` (stereo not drawn) [Example 1046, 1-(imidazo[1,2-a]pyridin-7-ylmethyl)-3-(4-{1-[(2-methyl-2,3-dihydro-1-benzofuran-5-yl)carbonyl]piperidin-4-yl}phenyl)urea] has an IC50 of 4.61 nM.
Compound `CCn1ncc(Cl)c1C(=O)N1CCC(c2ccc(NC(=O)NCc3ccn4ccnc4c3)cc2)CC1` [Example 1047, 1-(4-{1-[(4-chloro-1-ethyl-1H-pyrazol-5-yl)carbonyl]piperidin-4-yl}phenyl)-3-(imidazo[1,2-a]pyridin-7-ylmethyl)urea] has an IC50 of 0.205 nM.
With `N#Cc1cc(F)cc(C(=O)N2CCC(c3ccc(NC(=O)NCc4ccn5ccnc5c4)cc3)CC2)c1` [Example 1048, 1-{4-[1-(3-cyano-5-fluorobenzoyl)piperidin-4-yl]phenyl}-3-(imidazo[1,2-a]pyridin-7-ylmethyl)urea] the IC50 was 8.27 nM.
